Test results as given in US6372799B1, “Non-sedating diphenhydramine metabolites” (Bridge Pharma, Inc., priority 1998, dated 2002).

Test system: physostigmine-induced lethality in mice
Test: Sedative effects in vivo, physostigmine-induced lethality test
Conditions: result in words, figures not given
Protocol: The physostigmine-induced lethality test is being used in the present studies. This test is a modification of the sedation test technique reported by VILLANI et al., in U.S. Pat. No. 4,659,716. In short, physostigmine (1.9 mg/kg s.c.) produces 90-100% lethality when given to grouped mice with 10 animals in each plastic cage (approx. 11×26×13 cm). Mice administered a sedating agent, such as for example a sedative antihistamine prior to physostigmine are protected and survive. In the present study, test compounds are administered orally 60 minutes prior to physostigmine. The number of survivors is counted 30 minutes after physostigmine administration.

CN(C)CCOC(c1ccccc1)c1ccccc1 [diphenhydramine, DIPHENHYDRAMINE]
sedative activity / sedative side effects: profound sedative side effects
